Measurements published in PubChem BioAssay AID2060496 (Molecular Pharmacology Branch, DTP, NCI, 2025).
Several values for one entry are separate records, joined by “and”; a condition that tells them apart may be missing. Equal values may be shown once. Blank lines part the entries; values can stand above or below the molecule they belong to.

Tested on: 276233-004-R-J1-PDC complex spheroid viability
Assay: Anticancer human tumor 276233-004-R-J1-PDC patient-derived colon adenocarcinoma cell line growth inhibition [GQUAD]
Details: for viability, T/C: stronger effect = lower value
Excerpt: DNA G-quadruplex Stabilizer Agents in Combinations in Complex Spheroids
A high-throughput screen of multi-cell type tumor spheroids was designed to identify active combinations of DNA G-quadruplex stabilizer agents and targeted small molecules. Complex spheroids include a stromal component modeled by human endothelial cells (HUVEC) and fibroblasts modeled by human mesenchymal stem cells (MSCs). The concentration ranges selected for each drug and investigational agent were based upon clinically achievable concentrations if the clinical Cmax of the agent was known.
Compounds. The drugs and investigational agents: pidnarulex (CX-5461; NSC782164), APTO-253 (NSC789042), BRACO-19 (NSC847499), peposertib (NSC802822), ceralasertib (NSC780249), elimusertib (NSC800525), camonsertib (NSC841442), AZD-1390 (NSC803789), olaparib (NSC753686), talazoparib (NSC767125), ART-558 (NSC835418), sotorasib (NSC818433), MRTX-1133 (NSC836407), SN-38 (NSC673596), topotecan (NSC609699), etoposide (NSC141540), doxorubicin (NSC123127), gemcitabine (NSC613327), 5-fluorouracil (NSC19893), paclitaxel (NSC125973), vemurafenib (NSC761431), panobinostat (NSC761190), R-306465 (JNJ-16241199; NSC773264), adavosertib (NSC754352), TP-3654 (NSC805149), carboplatin (NSC241240), KSQ-4279 (NSC840948), and staurosporine (NSC755774) were obtained from the National Cancer Institute (NCI) Developmental Therapeutics Program Chemical Repository (34). The FDA-approved anticancer drug set is available from the NCI Developmental Therapeutics Program. […] The stock solutions were prepared in dimethyl sulfoxide (DMSO, Sigma-Aldrich, St. Louis, MO, cat. D2650) at 800-fold the tested concentration and stored at -70 degrees C prior to their use. All drugs and investigational agents were tested over a range starting from a high concentration at or near the clinical Cmax and decreasing in half-log increments. If the clinical Cmax for an agent had not been determined, the highest concentration tested was 10 microM.
2.3 Cell Culture. All cells were maintained in an incubator at 37 degrees C and 5% CO2 with 95% humidity. The PDC lines were cultured according to standard operating procedures established by the NCI PDMR. All PDCs were thawed and cultured in Matrigel-coated flasks prepared with a working solution of 1X Ham's F-12 nutrient mix, without supplementation (Invitrogen, cat. 11765054), 100 U/mL penicillin-streptomycin (Invitrogen, cat. 15140122), and 2.5% Matrigel (Corning Inc., cat. 354248) for the first three passages. The 857933-349-R-J2-PDC line was cultured in 6C/Colon 1B media, which includes advanced DMEM/F-12 (Thermo Fisher Scientific, cat. 12634028), 10 mM HEPES (Thermo Fisher Scientific, cat. 15630080), 1X GlutaMAX supplement (Thermo Fisher Scientific, cat. 35050061), 0.1 mg/mL primocin (InvivoGen, cat. ant-pm-2), 10% defined fetal bovine serum, heat inactivated (HyClone Laboratories Inc., cat. SH30070.03HI), 50% L-WRN conditioned media (ATCC, cat. CRL-3276), 1.25 mM N-Acetyl-L-cysteine (Sigma-Aldrich, cat. A9165), 10 mM nicotinamide (Sigma-Aldrich, cat. N0636), 1X B-27 supplement (Thermo Fisher Scientific, cat. 17504044), 1X N-2 supplement (Thermo Fisher Scientific, cat. 17502048), 10 microM Y-27632 dihydrochloride (Tocris Bioscience, cat. 1254), and 50 ng/mL human EGF recombinant protein (Thermo Fisher Scientific, cat. PHG0311). The 485176-168-R4-J1-PDC line was cultured in Panc media, which includes all 6C/Colon 1B media components plus 100 ng/mL human FGF-10 (Thermo Fisher Scientific, cat. 100-26), 500 nM SB-431542 (Selleckchem, cat. S1067), and gastrin (Tocris, cat. 3006).
[…]
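Further: spheroids exposed to drugs for seven days.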
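Wherever viability, T/C is given: 100% = DMSO vehicle control viability.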

IC50 (curve of compound): > 10 µM
Structure (SMILES): C=CCn1c(=O)c2cnc(Nc3ccc(N4CCN(C)CC4)cc3)nc2n1-c1cccc(C(C)(C)O)n1
viability, T/C (compound 0.0316 µM): 108% and 106% and 77.9%
viability, T/C (compound 0.1 µM): 92.1% and 90.6% and 74.1%
viability, T/C (compound 0.316 µM): 70.8% and 73.3% and 90.3%
viability, T/C (compound 1 µM): 63.5% and 69.4% and 61.4%
viability, T/C (compound 3.16 µM): 73.4% and 78.4% and 80.3%
viability, T/C (compound 10 µM): 65.8% and 87.4% and 92.2%

IC50 (curve of compound): > 10 µM and 7.41 µM
Structure (SMILES): CC1COCCN1c1cc(-c2ccnn2C)c2ccnc(-c3ccn[nH]3)c2n1 (configuration not stated)
viability, T/C (compound 0.0316 µM): 99.9% and 85.8% and 70.3%
viability, T/C (compound 0.1 µM): 85.9% and 83.5% and 72.1%
viability, T/C (compound 0.316 µM): 83.8% and 82.2% and 60.7%
viability, T/C (compound 1 µM): 68.7% and 82.9% and 70.1%
viability, T/C (compound 3.16 µM): 77.7% and 57.3% and 56.7%
viability, T/C (compound 10 µM): 58.9% and 53.9% and 47.2%

The remaining lines, values behind:

Structure (SMILES): C=CC(=O)N1CCN(c2nc(=O)n(-c3c(C)ccnc3C(C)C)c3nc(-c4c(O)cccc4F)c(F)cc23)C(C)C1 (configuration not stated) + Cc1cnc(CNC(=O)c2c(=O)c3ccc(N4CCCN(C)CC4)nc3n3c2sc2ccccc23)cn1
IC50 (curve of first compound, second compound 0.0316 µM): > 10 µM
IC50 (curve of first compound, second compound 0.1 µM): > 10 µM
IC50 (curve of first compound, second compound 0.316 µM): > 10 µM
IC50 (curve of first compound, second compound 1 µM): > 10 µM
IC50 (curve of first compound, second compound 3.16 µM): > 10 µM
IC50 (curve of first compound, second compound 10 µM): > 10 µM
viability, T/C (second compound 0.0316 µM, first compound 0.0316 µM): 82.3%
viability, T/C (second compound 0.0316 µM, first compound 0.1 µM): 75.1%
viability, T/C (second compound 0.0316 µM, first compound 0.316 µM): 81.3%
viability, T/C (second compound 0.0316 µM, first compound 1 µM): 83.5%
viability, T/C (second compound 0.0316 µM, first compound 3.16 µM): 103%
viability, T/C (second compound 0.0316 µM, first compound 10 µM): 95.8%
viability, T/C (second compound 0.1 µM, first compound 0.0316 µM): 93.6%
viability, T/C (second compound 0.1 µM, first compound 0.1 µM): 84.6%
viability, T/C (second compound 0.1 µM, first compound 0.316 µM): 94.9%
viability, T/C (second compound 0.1 µM, first compound 1 µM): 92.8%
viability, T/C (second compound 0.1 µM, first compound 3.16 µM): 98.4%
viability, T/C (second compound 0.1 µM, first compound 10 µM): 83.8%
viability, T/C (second compound 0.316 µM, first compound 0.0316 µM): 80.6%
viability, T/C (second compound 0.316 µM, first compound 0.1 µM): 86.3%
viability, T/C (second compound 0.316 µM, first compound 0.316 µM): 82.6%
viability, T/C (second compound 0.316 µM, first compound 1 µM): 83.6%
viability, T/C (second compound 0.316 µM, first compound 3.16 µM): 83.3%
viability, T/C (second compound 0.316 µM, first compound 10 µM): 86.7%
viability, T/C (second compound 1 µM, first compound 0.0316 µM): 76.3%
viability, T/C (second compound 1 µM, first compound 0.1 µM): 71%
viability, T/C (second compound 1 µM, first compound 0.316 µM): 88.9%
viability, T/C (second compound 1 µM, first compound 1 µM): 108%
viability, T/C (second compound 1 µM, first compound 3.16 µM): 79.5%
viability, T/C (second compound 1 µM, first compound 10 µM): 89.5%
viability, T/C (second compound 3.16 µM, first compound 0.0316 µM): 75.1%
viability, T/C (second compound 3.16 µM, first compound 0.1 µM): 74.9%
viability, T/C (second compound 3.16 µM, first compound 0.316 µM): 77.1%
viability, T/C (second compound 3.16 µM, first compound 1 µM): 73.4%
viability, T/C (second compound 3.16 µM, first compound 3.16 µM): 77.7%
viability, T/C (second compound 3.16 µM, first compound 10 µM): 83.5%
viability, T/C (second compound 10 µM, first compound 0.0316 µM): 62.7%
viability, T/C (second compound 10 µM, first compound 0.1 µM): 68.9%
viability, T/C (second compound 10 µM, first compound 0.316 µM): 75.6%
viability, T/C (second compound 10 µM, first compound 1 µM): 61.6%
viability, T/C (second compound 10 µM, first compound 3.16 µM): 80.3%
viability, T/C (second compound 10 µM, first compound 10 µM): 68.8%

Structure (SMILES): O=c1[nH]cc(F)c(=O)[nH]1
viability, T/C (compound 0.0316 µM): 98.2% and 108% and 102%
viability, T/C (compound 0.1 µM): 71.6% and 81.3% and 94.7%
viability, T/C (compound 0.316 µM): 89.2% and 90.9% and 103%
viability, T/C (compound 1 µM): 88.4% and 88.3% and 106%
viability, T/C (compound 3.16 µM): 84.1% and 90.3% and 83.7%
viability, T/C (compound 10 µM): 101% and 97.9% and 113%
IC50 (curve of compound): > 10 µM

Structure (SMILES): CC1COCCN1c1cc(C2(S(C)(=N)=O)CC2)nc(-c2ccnc3[nH]ccc23)n1 (configuration not stated)
viability, T/C (compound 0.0316 µM): 103% (2×) and 89.1%
viability, T/C (compound 0.1 µM): 92.5% and 89% and 63%
viability, T/C (compound 0.316 µM): 96.4% and 75.8% and 79.6%
viability, T/C (compound 1 µM): 93.7% and 76% and 77.1%
viability, T/C (compound 3.16 µM): 89.8% and 75.2% and 74.9%
viability, T/C (compound 10 µM): 68.3% and 69.6% and 60.1%
IC50 (curve of compound): > 10 µM

Structure (SMILES): COc1ncnc(C2CC2)c1-c1ncc2cnn(Cc3ccc(-c4nc(C(F)(F)F)cn4C(C)C)cc3)c2n1
viability, T/C (compound 0.0316 µM): 86% and 85.2% and 92%
viability, T/C (compound 0.1 µM): 69% and 77.1% and 72.8%
viability, T/C (compound 0.316 µM): 84.5% and 105% and 85.5%
viability, T/C (compound 1 µM): 82% and 82.4% and 85.8%
viability, T/C (compound 3.16 µM): 94.6% and 92.9% and 82.1%
viability, T/C (compound 10 µM): 98% and 75.9% and 97.7%
IC50 (curve of compound): > 10 µM
